1 compound from patent US20250065147A1, “SYSTEMS AND METHODS FOR PHOTODYNAMIC THERAPY” (Virginia Commonwealth University, priority 2023, published 2025) can be followed below.

The nature of data set [1]: ICG distribution after administration in patient derived orthotopic xenograft (PDOX) mouse model. It is filed as in vivo. The source says:
(§1) We set up a study of PDT with ICG using patient derived orthotopic xenograft (PDOX) mouse model (FIG. 7). In the PDOX model, the mouse liver has human liver cancer. […] We then found the optimal laser wavelength that liver-ICG can absorb with maximum intensity which was 809 nm (FIG. 2). We set up the laser to treat HCC with PDT with the setting numbers in Table 1.
On the technique in general: In xenograft studies the graft and the host belong to different species.

Data set [2] can be described thus: Optimal laser wavelength that liver-ICG can absorb with maximum intensity. Conditions: FIG. 2. It is filed as physicochemical.
Excerpt: as §1

The subject of a further data set is HCC (human liver cancer). The data set is described as follows: PDT with ICG (809 nm laser) in PDOX mouse model. The format is in vivo.
Excerpt: as §1

Values joined by “and” are separate entries in the source; they are usually repeats but may differ in a detail not shown here. Equal entries are not always repeated. “Also recorded” adds a separate entry of the source.

For the compound `CC1(C)C(/C=C/C=C/C=C/C=C2\N(CCCCS(=O)(=O)O)c3ccc4ccccc4c3C2(C)C)=[N+](CCCCS(=O)(=O)[O-])c2ccc3ccccc3c21` [ICG, indocyanine green], the ICG localisation entry is “present in the whole body” in data set [1] (at 0 hr after ICG administration), “present in the liver” in data set [1] (at 6 hrs after ICG administration) and “confined to a liver tumor; also recorded: confined in only HCC inside the liver” in data set [1] (at 24 hrs after ICG administration). In addition, the “optimal laser wavelength that liver-ICG can absorb with maximum intensity” value in data set [2] is 805-815 nm and 809 nm. In addition, the “finding on MRI after treatment” value with HCC (human liver cancer) (2 weeks after treatment, PDOX mouse) is reported as “tumor necrosis”. In the data set with HCC (human liver cancer) (specimen after PDT with ICG), the “pathologic evaluation of HCC” value is reported as “apoptosis of HCC”.
